ChEMBL document CHEMBL4477172, “Bougainvinones A-H, Peltogynoids from the Stem Bark of Purple Bougainvillea spectabilis and Their Cytotoxic Activity” (J Nat Prod, 2016)

Columns and labels:
Type in all cases: functional, cell-based
KB = assay: Cytotoxicity against human KB cells after 48 hrs by MTT assay
HeLa S3 = assay: Cytotoxicity against human HeLaS3 cells after 48 hrs by MTT assay; conditions: HeLa S3, 48 h
HT-29 = assay: Cytotoxicity against human HT-29 cells after 48 hrs by MTT assay; conditions: HT-29, 48 h
HepG2 = assay: Cytotoxicity against human HepG2 cells after 48 hrs by MTT assay; conditions: HepG2, 48 h
MCF7 = assay: Cytotoxicity against human MCF7 cells after 48 hrs by MTT assay; conditions: MCF7, 48 h

Row | Structure (SMILES) | IC50 (KB) [µM] | IC50 (HeLa S3) [µM] | IC50 (HT-29) [µM] | IC50 (HepG2) [µM] | IC50 (MCF7) [µM]
1 | COc1ccc2c(c1)COc1c-2oc2c(C)c(O)c(C)c(OC)c2c1=O | > 10 | > 10 | > 10 | > 10 | > 10
2 | COc1ccc2c(c1)COc1c-2oc2c(C)c(O)c(C)c(O)c2c1=O | 8.1 | 8.4 | 8.8 | 7.4 | 9.7
3 | COc1c(C)c(O)c(C)c2oc3c(c(=O)c12)OCc1ccccc1-3 | > 10 | > 10 | > 10 | > 10 | > 10
4 | COc1c(C)c(OC)c2c(=O)c3c(oc2c1C)-c1ccccc1CO3 | > 10 | > 10 | > 10 | > 10 | > 10
5 | Cc1c(O)c(C)c2oc3c(c(=O)c2c1O)OCc1ccccc1-3 | > 10 | > 10 | > 10 | > 10 | > 10
6 | COc1c(C)c(OC)c2c(=O)c3c(oc2c1C)-c1c(O)cccc1CO3 | > 10 | > 10 | > 10 | > 10 | > 10
7 | COc1c(C)c(O)c2c(=O)c3c(oc2c1C)-c1c(O)cccc1CO3 | 6.6 | > 10 | > 10 | > 10 | > 10
8 | Cc1c(O)c(C)c2oc3c(c(=O)c2c1O)OCc1cccc(O)c1-3 | 9 | > 10 | > 10 | > 10 | > 10
9 | COc1cccc2c1C(=O)c1c(O)c3c(c(O)c1C2=O)C[C@@](O)(C(=O)CO)C[C@@H]3O[C@H]1C[C@H](N)[C@H](O)[C@H](C)O1 [DOXORUBICIN] | 0.09 |  | 0.26 | 1.54 | 
